Test results published in patent US8287923B2, “Compositions and methods for treating immune disorders” (priority 2005, dated 2012).

Test system: normal human epidermal keratinocytes (NHEK)
Experiment: Affymetrix gene array analysis, autoantigen gene expression
Assay type: cell-based
Experimental: The gene array experiment was performed at the Core Facility of Genomics of the Medical College of Georgia, according to the instructions of the manufacturer (Affymetrix, Santa Clara, Calif.). Briefly, NHEK and OSC2 cells treated with 100 μM EGCG for different time period were extracted for total RNA, the RNA was processed for probes and hybridized with a cDNA microarray (HuG133A, Affymetrix) which represents 22,283 human series. DNA chips were read with a Hewlett-Packard GeneArray Scanner at a resolution of […] and were analyzed with the GeneSpring software (Silicon Genetics, Redwood City, Calif.). Details of this analysis will be published elsewhere (Hsu et al., manuscript in preparation).
Gene assays provide a valuable tool for studying the broad response of cells to agents, and we have used this approach to compare the differential effects of GTPP on gene expression in NHEK and human oral squamous carcinoma cells (Hsu, et al, manuscript in preparation). […] See also Hsu, S. et al. (2005) JPET 315:805-811, which is incorporated by reference in its entirety.

## O=C(O[C@@H]1Cc2c(O)cc(O)cc2O[C@@H]1c1cc(O)c(O)c(O)c1)c1cc(O)c(O)c(O)c1 [EGCG, (−)-epigallocatechin-3-gallate]
100 uM EGCG, both cell types (NHEK, oral squamous carcinoma cells), 24 hrs post-treatment
  genes either up- or down-regulated by at least 2-fold: approximately 2100 genes
0.5 h, 100 μM
  60 kDa, SS-A/Ro (210438_x_at) expression, normalized: 0.71
  60 kDa, SS-A/Ro (212852_s_at) expression, normalized: 0.60
  Ku autoantigen, 80 kDa (208642_s_at) expression, normalized: 1.29
  Ku autoantigen, 80 kDa (208643_s_at) expression, normalized: 2.34
  Nuclear antigen SP100 (202863_at) expression, normalized: 1.72
  Nuclear antigen SP100 (202864_s_at) expression, normalized: 3.12
  Nuclear antigen SP10075 kDa (213226_at) expression, normalized: 3.99
  RNA polymerase 1 (202692_s-at) expression, normalized: 0.50
  SS-B/La (201138_s_at) expression, normalized: 0.84
  SS-B/La (201139_s_at) expression, normalized: 0.71
  centromere protein C1 (20473_at) expression, normalized: 1.27
  coilin (203653_s_at) expression, normalized: 0.49
  coilin (203654_s_at) expression, normalized: 1.11
  fodrin-α (208611_s_at) expression, normalized: 0.41
  fodrin-α (215235_s_at) expression, normalized: 0.49
  golgin-67 (208797_s_at) expression, normalized: 1.26
  golgin-67 (208798_x_at) expression, normalized: 0.81
  golgin-67 (210425_x_at) expression, normalized: 0.50
  golgin-67 (213650_at) expression, normalized: 0.24
  scleroderma autoantigen 1, 75 kDa (213226_at) expression, normalized: 3.99
  spectrin-β non-erythrocyctic 1 (212071_s_at) expression, normalized: 0.91
  thyroid autoantigen 70 kDa (Ku antigen) (200792_at) expression, normalized: 1.15
0.5 h, 100 μM, vs time zero
  ADPRT [poly(ADP)-ribose polymerase] expression: 3.547 fold
  ANAP12 expression: 0.505 fold
  ANXA11 expression: 1.043 fold
  CALR expression: 0.71 fold
  CBARA1 expression: 0.506 fold
  CENPA expression: 7.677 fold
  CENPB expression: 0.506 fold
  CENPC1 expression: 1.269 fold
  CHD4 expression: 0.766 fold
  COL17A1 expression: 1.749 fold
  CTDSP1 expression: 0.71 fold
  CTDSP2 expression: 1.61 fold
  CTDSPL expression: 2.83 fold
  DLAT expression: 1.54 fold
  EPPK1 expression: 0.793 fold
  FBL expression: 1.64 fold
  FLJ31657 expression: 0.833 fold
  FLNB (Filamin B, β) expression: 1.379 fold
  FLNB (Filamin B, γ) expression: 0.72 fold
  G22P1 (Thyroid autoantigen, 70 kDa, Ku antigen) expression: 1.15 fold
  GMEB2 expression: 0.584 fold
  GOLGA1 expression: 0.398 fold
  GOLGA2 expression: 0.332 fold
  GOLGA3 expression: 0.533 fold
  GOLGA4 expression: 0.822 fold
  GOLGA5 expression: 1.566 fold
  GOLGB1 expression: 0.969 fold
  HARS expression: 1.27 fold
  HARSL expression: 1.12 fold
  HSA6591 expression: 0.456 fold
  HUMAUANTIG expression: 0.948 fold
  IMP-2 expression: 1.615 fold
  LAD1 expression: 0.799 fold
  LMO4 expression (repeat 1): 0.272 fold
  LMO4 expression (repeat 2): 0.6 fold
  MGC5560 expression (repeat 1): 4.392 fold
  MGC5560 expression (repeat 2): 7.07 fold
  NS (Nucleostemin) expression: 0.634 fold
  PDHB expression: 1.079 fold
  PDX1 expression: 1.103 fold
  PMSCL1, 75 kDa expression: 3.993 fold
  PMSCL2 expression: 0.959 fold
  POLR1B expression: 0.67 fold
  POLR1D expression: 0.90 fold
  POLR2A expression (repeat 1): 0.13 fold
  POLR2A expression (repeat 2): 1.03 fold
  POLR2B expression: 1.83 fold
  POLR2C expression: 1.32 fold
  POLR2D expression: 1.14 fold
  POLR2E expression: 0.45 fold
  POLR2F expression: 0.90 fold
  POLR2G expression: 1.09 fold
  POLR2H expression: 0.88 fold
  POLR3C expression: 0.90 fold
  POLR3G expression: 1.55 fold
  PSME3 expression: 2.554 fold
  RALY expression: 1.556 fold
  SART1 expression: 1.982 fold
  SLC25A16 expression: 1.022 fold
  SNRP70 expression: 3.59 fold
  SNRPA expression: 1.29 fold
  SNRPB2 expression: 0.49 fold
  SNRPB expression (repeat 1): 0.96 fold
  SNRPB expression (repeat 2): 0.62 fold
  SNRPC expression: 1.28 fold
  SNRPD1 expression (repeat 1): 2.098 fold
  SNRPD1 expression (repeat 2): 0.755 fold
  SOX13 expression: 1.304 fold
  SP100 expression (repeat 1): 1.72 fold
  SP100 expression (repeat 2): 3.123 fold
  SP110 expression (repeat 1): 5.725 fold
  SP110 expression (repeat 2): 4.176 fold
  SP110 expression (repeat 3): 1.149 fold
  SPTAN1 (α-fodrin) expression (repeat 1): 0.41 fold
  SPTAN1 (α-fodrin) expression (repeat 2): 0.49 fold
  SPTBN expression: 0.91 fold
  SSA2 (autoantigen SS-A/Ro) expression (repeat 2): 0.709 fold
  SSA2 expression (repeat 1): 1.009 fold
  SSA2 expression (repeat 3): 0.505 fold
  SSA2 expression (repeat 4): 0.596 fold
  SSB (autoantigen La) expression (repeat 1): 0.838 fold
  SSB (autoantigen La) expression (repeat 2): 0.711 fold
  SSNA1 expression: 1.354 fold
  SSSCA1 expression: 1.267 fold
  STRN3 expression: 0.425 fold
  TOP1 expression (repeat 1): 0.85 fold
  TOP1 expression (repeat 2): 0.62 fold
  UBTF expression: 0.498 fold
  XRCC5 (Ku autoantigen, 80 kDa) expression (repeat 1): 2.338 fold
  XRCC5 (Ku autoantigen, 80 kDa) expression (repeat 2): 1.87 fold
  dJ963E22.1 expression: 1.842 fold
  α-NAC expression: 0.632 fold
